From ChEMBL document CHEMBL4251595, “Green approach for the synthesis of thiophenyl pyrazoles and isoxazoles by adopting 1,3-dipolar cycloaddition methodology and their antimicrobial activity” (2018)
Activity calls are given as the source filed them. The rule behind the calls is not given here.

Legend:
Format in all cases: functional
Pseudomonas aeruginosa [1] = test: Antimicrobial activity against Pseudomonas aeruginosa assessed as zone of inhibition at 75 ug/well after 24 hrs by agar well diffusion method; settings: for zone of inhibition at 75 µg/disc: read-out: DIZ
Staphylococcus aureus [2] = test: Antimicrobial activity against Staphylococcus aureus assessed as zone of inhibition at 50 ug/well after 24 hrs by agar well diffusion method; settings: for zone of inhibition at 50 µg/disc: read-out: DIZ
Pseudomonas aeruginosa [3] = test: Antimicrobial activity against Pseudomonas aeruginosa assessed as zone of inhibition at 100 ug/well after 24 hrs by agar well diffusion method; settings: for zone of inhibition at 100 µg/disc: read-out: DIZ
Aspergillus niger [4] = test: Antifungal activity against Aspergillus niger assessed as zone of inhibition at 50 ug/well after 48 hrs by agar well diffusion method; settings: for zone of inhibition at 50 µg/disc: read-out: DIZ
Aspergillus niger [5] = test: Antifungal activity against Aspergillus niger assessed as zone of inhibition at 100 ug/well after 48 hrs by agar well diffusion method; settings: for zone of inhibition at 100 µg/disc: read-out: DIZ
Pseudomonas aeruginosa [6] = test: Antimicrobial activity against Pseudomonas aeruginosa assessed as zone of inhibition at 50 ug/well after 24 hrs by agar well diffusion method
Bacillus subtilis [7] = test: Antimicrobial activity against Bacillus subtilis assessed as zone of inhibition at 100 ug/well after 24 hrs by agar well diffusion method; settings: read-out: DIZ
Aspergillus niger [8] = test: Antifungal activity against Aspergillus niger assessed as zone of inhibition at 75 ug/well after 48 hrs by agar well diffusion method; settings: for zone of inhibition at 75 µg/disc: read-out: DIZ
Klebsiella pneumoniae [9] = test: Antimicrobial activity against Klebsiella pneumoniae assessed as zone of inhibition at 50 ug/well after 24 hrs by agar well diffusion method; settings: for zone of inhibition at 50 µg/disc: read-out: DIZ
Klebsiella pneumoniae [10] = test: Antimicrobial activity against Klebsiella pneumoniae assessed as zone of inhibition at 100 ug/well after 24 hrs by agar well diffusion method; settings: read-out: DIZ
Penicillium chrysogenum [11] = test: Antifungal activity against Penicillium chrysogenum assessed as zone of inhibition at 100 ug/well after 48 hrs by agar well diffusion method; settings: for zone of inhibition at 100 µg/disc: read-out: DIZ
Klebsiella pneumoniae [12] = test: Antimicrobial activity against Klebsiella pneumoniae assessed as zone of inhibition at 75 ug/well after 24 hrs by agar well diffusion method; settings: for zone of inhibition at 75 µg/disc: read-out: DIZ
Bacillus subtilis [13] = test: Antimicrobial activity against Bacillus subtilis assessed as zone of inhibition at 50 ug/well after 24 hrs by agar well diffusion method; settings: read-out: DIZ
Staphylococcus aureus [14] = test: Antimicrobial activity against Staphylococcus aureus assessed as zone of inhibition at 100 ug/well after 24 hrs by agar well diffusion method; settings: for zone of inhibition at 100 µg/disc: read-out: DIZ
Penicillium chrysogenum [15] = test: Antifungal activity against Penicillium chrysogenum assessed as zone of inhibition at 75 ug/well after 48 hrs by agar well diffusion method; settings: for zone of inhibition at 75 µg/disc: read-out: DIZ
Bacillus subtilis [16] = test: Antimicrobial activity against Bacillus subtilis assessed as zone of inhibition at 75 ug/well after 24 hrs by agar well diffusion method; settings: read-out: DIZ
Penicillium chrysogenum [17] = test: Antifungal activity against Penicillium chrysogenum assessed as zone of inhibition at 50 ug/well after 48 hrs by agar well diffusion method
Staphylococcus aureus [18] = test: Antimicrobial activity against Staphylococcus aureus assessed as zone of inhibition at 75 ug/well after 24 hrs by agar well diffusion method; settings: for zone of inhibition at 75 µg/disc: read-out: DIZ

With `Cc1ccc(-c2c(S(=O)(=O)NC(=O)c3cccs3)c(-c3ccccc3)nn2-c2ccccc2)cc1` the zone of inhibition at 75 µg/disc (Pseudomonas aeruginosa [1]) was 8 mm, the zone of inhibition at 50 µg/disc (Staphylococcus aureus [2]) was 9 mm and the zone of inhibition at 100 µg/disc (Pseudomonas aeruginosa [3]) was 11 mm. The zone of inhibition at 50 µg/disc (Aspergillus niger [4]) was 12 mm, the zone of inhibition at 100 µg/disc (Aspergillus niger [5]) was 17 mm and the “diameter of the inhibition zone (DIZ)” value (Pseudomonas aeruginosa [6]) was “inactive”. The zone of inhibition at 100 µg/disc (Bacillus subtilis [7]) was 21 mm, the zone of inhibition at 75 µg/disc (Aspergillus niger [8]) was 15 mm and the zone of inhibition at 50 µg/disc (Klebsiella pneumoniae [9]) was 14 mm. It also gave a zone of inhibition at 100 µg/disc (Klebsiella pneumoniae [10]) of 18 mm, a zone of inhibition at 100 µg/disc (Penicillium chrysogenum [11]) of 10 mm and a zone of inhibition at 75 µg/disc (Klebsiella pneumoniae [12]) of 16 mm. It also gave a zone of inhibition at 50 µg/disc (Bacillus subtilis [13]) of 16 mm, a zone of inhibition at 100 µg/disc (Staphylococcus aureus [14]) of 14 mm and a zone of inhibition at 75 µg/disc (Penicillium chrysogenum [15]) of 8 mm. For the same compound, the zone of inhibition at 75 µg/disc (Bacillus subtilis [16]) was 18 mm, the “diameter of the inhibition zone (DIZ)” value (Penicillium chrysogenum [17]) was “inactive” and the zone of inhibition at 75 µg/disc (Staphylococcus aureus [18]) was 12 mm.
`Cc1ccc(-c2onc(-c3ccccc3)c2S(=O)(=O)NC(=O)c2cccs2)cc1` gave a zone of inhibition at 75 µg/disc (Pseudomonas aeruginosa [1]) of 9 mm, a zone of inhibition at 50 µg/disc (Staphylococcus aureus [2]) of 12 mm and a zone of inhibition at 100 µg/disc (Pseudomonas aeruginosa [3]) of 12 mm. For the same compound, the zone of inhibition at 50 µg/disc (Aspergillus niger [4]) was 13 mm, the zone of inhibition at 100 µg/disc (Aspergillus niger [5]) was 18 mm and the “diameter of the inhibition zone (DIZ)” value (Pseudomonas aeruginosa [6]) was “inactive”. It also gave a zone of inhibition at 100 µg/disc (Bacillus subtilis [7]) of 23 mm, a zone of inhibition at 75 µg/disc (Aspergillus niger [8]) of 15 mm and a zone of inhibition at 50 µg/disc (Klebsiella pneumoniae [9]) of 16 mm. It also gave a zone of inhibition at 100 µg/disc (Klebsiella pneumoniae [10]) of 21 mm, a zone of inhibition at 100 µg/disc (Penicillium chrysogenum [11]) of 16 mm and a zone of inhibition at 75 µg/disc (Klebsiella pneumoniae [12]) of 20 mm. For the same compound, the zone of inhibition at 50 µg/disc (Bacillus subtilis [13]) was 18 mm, the zone of inhibition at 100 µg/disc (Staphylococcus aureus [14]) was 16 mm and the zone of inhibition at 75 µg/disc (Penicillium chrysogenum [15]) was 12 mm. It also gave a zone of inhibition at 75 µg/disc (Bacillus subtilis [16]) of 20 mm, a zone of inhibition at 50 µg/disc (Penicillium chrysogenum [17]; read-out: DIZ) of 10 mm and a zone of inhibition at 75 µg/disc (Staphylococcus aureus [18]) of 14 mm.
In the case of `O=C(NS(=O)(=O)C1C(c2ccccc2)=NOC1c1ccccc1)c1cccs1` (stereo not given), the “diameter of the inhibition zone (DIZ)” value (Pseudomonas aeruginosa [1]) was “inactive”, the “diameter of the inhibition zone (DIZ)” value (Staphylococcus aureus [2]) was “inactive” and the “diameter of the inhibition zone (DIZ)” value (Pseudomonas aeruginosa [3]) was “inactive”. The “diameter of the inhibition zone (DIZ)” value (Aspergillus niger [4]) was “inactive”, the “diameter of the inhibition zone (DIZ)” value (Aspergillus niger [5]) was “inactive” and the “diameter of the inhibition zone (DIZ)” value (Pseudomonas aeruginosa [6]) was “inactive”. The zone of inhibition at 100 µg/disc (Bacillus subtilis [7]) was 13 mm, the “diameter of the inhibition zone (DIZ)” value (Aspergillus niger [8]) was “inactive” and the “diameter of the inhibition zone (DIZ)” value (Klebsiella pneumoniae [9]) was “inactive”. For the same compound, the zone of inhibition at 100 µg/disc (Klebsiella pneumoniae [10]) was 9 mm, the “diameter of the inhibition zone (DIZ)” value (Penicillium chrysogenum [11]) was “inactive” and the “diameter of the inhibition zone (DIZ)” value (Klebsiella pneumoniae [12]) was “inactive”. The zone of inhibition at 50 µg/disc (Bacillus subtilis [13]) was 7 mm, the “diameter of the inhibition zone (DIZ)” value (Staphylococcus aureus [14]) was “inactive” and the “diameter of the inhibition zone (DIZ)” value (Penicillium chrysogenum [15]) was “inactive”. For the same compound, the zone of inhibition at 75 µg/disc (Bacillus subtilis [16]) was 10 mm, the “diameter of the inhibition zone (DIZ)” value (Penicillium chrysogenum [17]) was “inactive” and the “diameter of the inhibition zone (DIZ)” value (Staphylococcus aureus [18]) was “inactive”.
`Cc1ccc(/C=C/S(=O)(=O)NC(=O)c2ccc(Cl)s2)cc1` was tested, and the zone of inhibition at 75 µg/disc (Pseudomonas aeruginosa [1]) was 11 mm, the zone of inhibition at 50 µg/disc (Staphylococcus aureus [2]) was 10 mm and the zone of inhibition at 100 µg/disc (Pseudomonas aeruginosa [3]) was 12 mm. The zone of inhibition at 50 µg/disc (Aspergillus niger [4]) was 9 mm, the zone of inhibition at 100 µg/disc (Aspergillus niger [5]) was 14 mm and the “diameter of the inhibition zone (DIZ)” value (Pseudomonas aeruginosa [6]) was “inactive”. For the same compound, the zone of inhibition at 100 µg/disc (Bacillus subtilis [7]) was 22 mm, the zone of inhibition at 75 µg/disc (Aspergillus niger [8]) was 11 mm and the zone of inhibition at 50 µg/disc (Klebsiella pneumoniae [9]) was 14 mm. For the same compound, the zone of inhibition at 100 µg/disc (Klebsiella pneumoniae [10]) was 17 mm, the zone of inhibition at 100 µg/disc (Penicillium chrysogenum [11]) was 12 mm and the zone of inhibition at 75 µg/disc (Klebsiella pneumoniae [12]) was 15 mm. For the same compound, the zone of inhibition at 50 µg/disc (Bacillus subtilis [13]) was 17 mm, the zone of inhibition at 100 µg/disc (Staphylococcus aureus [14]) was 14 mm and the zone of inhibition at 75 µg/disc (Penicillium chrysogenum [15]) was 10 mm. The zone of inhibition at 75 µg/disc (Bacillus subtilis [16]) was 19 mm, the “diameter of the inhibition zone (DIZ)” value (Penicillium chrysogenum [17]) was “inactive” and the zone of inhibition at 75 µg/disc (Staphylococcus aureus [18]) was 13 mm.
With `O=C(NS(=O)(=O)C1C(c2ccccc2)=NOC1c1ccccc1)c1ccc(Cl)s1` (stereo not given) the “diameter of the inhibition zone (DIZ)” value (Pseudomonas aeruginosa [1]) was “inactive”, the “diameter of the inhibition zone (DIZ)” value (Staphylococcus aureus [2]) was “inactive” and the “diameter of the inhibition zone (DIZ)” value (Pseudomonas aeruginosa [3]) was “inactive”. For the same compound, the “diameter of the inhibition zone (DIZ)” value (Aspergillus niger [4]) was “inactive”, the zone of inhibition at 100 µg/disc (Aspergillus niger [5]) was 12 mm and the “diameter of the inhibition zone (DIZ)” value (Pseudomonas aeruginosa [6]) was “inactive”. For the same compound, the zone of inhibition at 100 µg/disc (Bacillus subtilis [7]) was 16 mm, the zone of inhibition at 75 µg/disc (Aspergillus niger [8]) was 9 mm and the zone of inhibition at 50 µg/disc (Klebsiella pneumoniae [9]) was 8 mm. The zone of inhibition at 100 µg/disc (Klebsiella pneumoniae [10]) was 12 mm, the zone of inhibition at 100 µg/disc (Penicillium chrysogenum [11]) was 7 mm and the zone of inhibition at 75 µg/disc (Klebsiella pneumoniae [12]) was 10 mm. For the same compound, the zone of inhibition at 50 µg/disc (Bacillus subtilis [13]) was 10 mm, the zone of inhibition at 100 µg/disc (Staphylococcus aureus [14]) was 8 mm and the “diameter of the inhibition zone (DIZ)” value (Penicillium chrysogenum [15]) was “inactive”. For the same compound, the zone of inhibition at 75 µg/disc (Bacillus subtilis [16]) was 12 mm, the “diameter of the inhibition zone (DIZ)” value (Penicillium chrysogenum [17]) was “inactive” and the “diameter of the inhibition zone (DIZ)” value (Staphylococcus aureus [18]) was “inactive”.
